Assays:
[1] = biological target: T1, Eukaryotic translation initiation factor 2-alpha kinase 3 (Homo sapiens, UniProt Q9NZJ5); assay: Inhibition of recombinant GST-tagged PERK (unknown origin) by LanthaScreen assay
T1 sequence (Q9NZJ5 whole entry): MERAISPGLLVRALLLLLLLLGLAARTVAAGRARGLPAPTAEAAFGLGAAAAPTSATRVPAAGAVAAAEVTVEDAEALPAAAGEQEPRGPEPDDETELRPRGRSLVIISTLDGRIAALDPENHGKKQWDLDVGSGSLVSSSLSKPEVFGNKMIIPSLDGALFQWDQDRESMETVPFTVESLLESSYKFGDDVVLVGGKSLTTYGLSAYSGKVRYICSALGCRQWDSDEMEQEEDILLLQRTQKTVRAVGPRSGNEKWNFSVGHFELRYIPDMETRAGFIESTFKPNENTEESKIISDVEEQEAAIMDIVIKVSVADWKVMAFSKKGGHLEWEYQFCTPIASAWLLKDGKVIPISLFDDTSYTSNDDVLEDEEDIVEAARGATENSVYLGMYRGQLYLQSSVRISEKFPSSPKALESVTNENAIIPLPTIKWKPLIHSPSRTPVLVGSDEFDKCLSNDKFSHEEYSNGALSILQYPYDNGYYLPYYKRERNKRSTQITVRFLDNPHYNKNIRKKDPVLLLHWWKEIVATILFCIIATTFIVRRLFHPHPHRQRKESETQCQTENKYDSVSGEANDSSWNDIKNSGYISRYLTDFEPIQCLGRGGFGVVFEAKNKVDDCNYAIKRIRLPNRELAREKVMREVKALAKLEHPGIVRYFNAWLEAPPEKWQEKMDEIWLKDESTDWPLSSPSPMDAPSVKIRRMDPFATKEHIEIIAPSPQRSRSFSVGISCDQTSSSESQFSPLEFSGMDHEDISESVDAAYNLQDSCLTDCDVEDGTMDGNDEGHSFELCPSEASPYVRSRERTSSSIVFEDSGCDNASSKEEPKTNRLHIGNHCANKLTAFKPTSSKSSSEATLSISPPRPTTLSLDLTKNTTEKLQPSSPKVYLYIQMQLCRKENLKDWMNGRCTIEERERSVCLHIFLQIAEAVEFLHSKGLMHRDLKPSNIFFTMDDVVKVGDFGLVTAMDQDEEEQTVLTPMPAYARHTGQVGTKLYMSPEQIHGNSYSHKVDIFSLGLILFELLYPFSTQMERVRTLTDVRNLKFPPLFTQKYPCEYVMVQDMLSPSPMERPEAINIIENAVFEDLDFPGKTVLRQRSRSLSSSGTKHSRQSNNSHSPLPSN

[2] = biological target: T1, Eukaryotic translation initiation factor 2-alpha kinase 3; assay: Inhibition of PERK (unknown origin) expressed in HEK293 cells assessed as inhibition of phosphorylation of GFP-eIF2 alpha by cell-based TR-FRET assay

Compound	IC50 [1]	IC50 [2]
COc1cc2ncnc(Nc3ccc4c(c3)CCN4C(=O)Cc3c[nH]c4ccccc34)c2cc1OC	5.01 nM	501 nM
COc1cc2ncnc(Nc3ccc4c(c3)CCN4C(=O)Cn3ccc4ccccc43)c2cc1OC		316 nM

The remaining lines, values ahead:

IC50 [1]	IC50 [2]	Compound
0.631 nM	25.1 nM	COc1cc2ncnc(Nc3ccc4c(c3)CCN4C(=O)Cc3c(C)[nH]c4cc(F)ccc34)c2cc1OC
0.398 nM	50.1 nM	COc1cc2ncnc(Nc3ccc4c(c3)CCN4C(=O)Cc3cc(F)ccc3F)c2cc1OC
	> 31600 nM	COc1cc2ncnc(Nc3ccc4c(c3)CCN4C(=O)Cc3coc4ccccc34)c2cc1OC
